The values below come from patent publication US4954513A, “Leukotriene antagonists” (SmithKline Beecham Corporation, priority 1988, dated 1990).

The structures appear in SMILES notation.

The assay has as its target T1, leukotriene induced contraction of guinea pig tracheal tissues (Cavia porcellus, UniProt Q2NNR5).
T1 construct: Guinea pig (adult male albino Hartley strain) tracheal spiral strips; from tissue; host or cells: guinea pig (adult male albino Hartley) tracheal spiral strips
T1 sequence (Q2NNR5 1-340): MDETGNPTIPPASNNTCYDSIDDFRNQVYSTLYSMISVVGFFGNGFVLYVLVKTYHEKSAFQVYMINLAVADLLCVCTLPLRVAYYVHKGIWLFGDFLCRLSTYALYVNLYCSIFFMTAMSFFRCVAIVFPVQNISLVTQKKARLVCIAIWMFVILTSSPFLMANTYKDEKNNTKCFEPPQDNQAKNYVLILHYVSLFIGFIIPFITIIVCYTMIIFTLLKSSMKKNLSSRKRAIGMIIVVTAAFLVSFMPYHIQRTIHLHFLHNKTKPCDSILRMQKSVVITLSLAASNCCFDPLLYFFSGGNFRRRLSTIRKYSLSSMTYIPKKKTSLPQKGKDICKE
The experiment in a line: Inhibition of leukotriene (LTD4) induced contraction of guinea pig tracheal spiral strips in vitro. The class given is cell-based. The settings on record: LTD4 concentration-response on guinea pig tracheal strips, 30 min pretreatment with test compound, meclofenamic acid 1uM; EC30 shift; current average data; read-out: -LogKB (converted). On the procedure: The leukotriene antagonist activity of the compounds of this invention is measured by the ability of the compounds to inhibit the leukotriene induced contraction of guinea pig tracheal tissues in vitro. The following methodology was employed: In vitro: Guinea pig (adult male albino Hartley strain) tracheal spiral strips of approximate dimensions 2 to 3 mm cross sectional width and 3.5 cm length were bathed in modified Krebs buffer in jacketed 10 ml tissue bath and continuously aerated with 95% O2 /5% CO2. The tissues were connected via silk suture to force displacement transducers for recording isometric tension. The tissues were equilibrated for 1 hr., pretreated for 15 minutes with meclofenamic acid (1uM) to remove intrinsic prostaglandin responses, and then pretreated for an additional 30 minutes with either the test compound or vehicle control. A cumulative concentration-response curve for LTD4 on triplicate tissues was generated by successive increases in the bath concentration of the LTD4. In order to minimize intertissue variability, the contractions elicited by LTD4 were standardized as a percentage of the maximum response obtained to a reference agonist, carbachol (10uM). Calculations: The averages of the triplicate LTD4 concentration response curves both in the presence and absence of the test compound were plotted on log graph paper. The concentration of LTD4 needed to elicit 30% of the contraction elicited by carbachol was measured and defined as the EC30. The -log KB value for the test compound was determined by the following equations: [formula] […] The antagonist activity of representative compounds of this invention is listed in Table I. The -log KB values were calculated from the above protocol. Where compounds were tested more than once, the -log KB values given here represent the current average data.
With `O=C(CCSC(c1ccccc1CCCCCCCCc1ccccc1)C(O)C(=O)O)NS(=O)(=O)c1ccccc1` (stereo not drawn) [2-Hydroxy-3-[2-(N-phenylsulfonylcarbamoylethyl)thio]-3-[2-(8 phenyloctyl)phenyl]propanoic acid], the Kd was 39.8 nM.

For the molecule `O=C(O)CCSC(CC(=O)NS(=O)(=O)c1ccccc1)c1ccccc1CCCCCCCCc1ccccc1` (stereo not drawn) [Compound 2, N-[3-(Carboxyethylthio)-3-[2-(8-phenyloctyl)phenyl]]propionylbenzenesulfonamide], the Kd is 316 nM.

Regarding `CS(=O)(=O)NC(=O)CC(SCCC(=O)O)c1ccccc1CCCCCCCCc1ccccc1` (stereo not drawn) [Compound 3, N-[3-(carboxyethylthio)-3-[2 (8 phenyloctyl)phenyl]propionyl]methanesulfonamide], the Kd was 398 nM.
